Laboratory results taken from PubChem BioAssay AID248 (DTP/NCI, 2004).
Where “and” joins values, the source holds several entries; their conditions need not be identical. Equal entries are not always repeated. Inconclusive results and toxic doses are left out. Cut-off read from the data, not from the text of the source: active = T/C of 150% or more; inactive = T/C below 125%.

Test system: L1210 leukemia ip in BDF1 mice, survival T/C
Test: NCI In Vivo Anticancer Drug Screen. Data for tumor model L1210 Leukemia (intraperitoneal) in B6D2F1 (BDF1) mice
Settings: endpoint: mean survival time, higher = longer survival
Procedure, shortened: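 Ratio derived from survival: compound-dosed mice over vehicle-dosed mice, all bearing a transplantable tumor.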

[1] = dose: 100.0 mg/kg/injection, schedule: Q04DX003 (ip), vehicle: saline with Tween-80
[2] = dose: 200.0 mg/kg/injection, schedule: Q04DX003 (ip), vehicle: saline with Tween-80
[3] = dose: 100.0 mg/kg/injection, schedule: Q01DX001 (ip), vehicle: saline
[4] = dose: 200.0 mg/kg/injection, schedule: Q01DX001 (ip), vehicle: saline
[5] = dose: 100.0 mg/kg/injection, schedule: Q01DX001 (sc), vehicle: steriod suspending solution
[6] = dose: 200.0 mg/kg/injection, schedule: Q01DX001 (sc), vehicle: steriod suspending solution
[7] = dose: 400.0 mg/kg/injection, schedule: Q01DX001 (sc), vehicle: steriod suspending solution
[8] = dose: 100.0 mg/kg/injection, schedule: Q01DX009 (ip), vehicle: Klucel (hydroxypropylcellulose) (HPC)
[9] = dose: 100.0 mg/kg/injection, schedule: Q04DX003 (ip), vehicle: Klucel (hydroxypropylcellulose) (HPC)
[10] = dose: 200.0 mg/kg/injection, schedule: Q01DX009 (ip), vehicle: Klucel (hydroxypropylcellulose) (HPC)
[11] = dose: 200.0 mg/kg/injection, schedule: Q04DX003 (ip), vehicle: Klucel (hydroxypropylcellulose) (HPC)
[12] = dose: 400.0 mg/kg/injection, schedule: Q01DX009 (ip), vehicle: Klucel (hydroxypropylcellulose) (HPC)
[13] = dose: 400.0 mg/kg/injection, schedule: Q04DX003 (ip), vehicle: Klucel (hydroxypropylcellulose) (HPC)
[14] = dose: 100.0 mg/kg/injection, schedule: Q01DX001 (ip), vehicle: Klucel (hydroxypropylcellulose) (HPC)
[15] = dose: 200.0 mg/kg/injection, schedule: Q01DX001 (ip), vehicle: Klucel (hydroxypropylcellulose) (HPC)
[16] = dose: 400.0 mg/kg/injection, schedule: Q01DX001 (ip), vehicle: Klucel (hydroxypropylcellulose) (HPC)
[17] = dose: 100.0 mg/kg/injection, schedule: Q04DX002 (ip), vehicle: saline with Tween-80
[18] = dose: 200.0 mg/kg/injection, schedule: Q04DX002 (ip), vehicle: saline with Tween-80
[19] = dose: 400.0 mg/kg/injection, schedule: Q04DX002 (ip), vehicle: saline with Tween-80
[20] = dose: 400.0 mg/kg/injection, schedule: Q04DX003 (ip), vehicle: saline with Tween-80
[21] = dose: 100.0 mg/kg/injection, schedule: Q01DX009 (ip), vehicle: saline with Tween-80

Measured: T/C

CN(C)C=Nc1ncnc2[nH]ncc12
inactive: [1] 107 % of control | dose: 150.0 mg/kg/injection, schedule: Q04DX003 (ip), vehicle: saline with Tween-80 107 % of control | [2] 123 % of control | dose: 250.0 mg/kg/injection, schedule: Q04DX003 (ip), vehicle: saline with Tween-80 123 % of control

COc1ccc(/C=C2\NC(=O)NC2=O)cc1
inactive: [3] 98 % of control | [4] 93 % of control | dose: 400.0 mg/kg/injection, schedule: Q01DX001 (ip), vehicle: saline 95 % of control

O=C(COc1ccc(Br)cc1)Nc1ccc(Br)cc1
inactive: dose: 100.0 mg/kg/injection, schedule: Q04DX002 (ip), vehicle: Klucel (hydroxypropylcellulose) (HPC) 95 % of control | dose: 200.0 mg/kg/injection, schedule: Q04DX002 (ip), vehicle: Klucel (hydroxypropylcellulose) (HPC) 95 % of control | dose: 400.0 mg/kg/injection, schedule: Q04DX002 (ip), vehicle: Klucel (hydroxypropylcellulose) (HPC) 89 % of control

COc1cc([N+](=O)[O-])ccc1NC(=O)C(Br)C(Br)C(=O)O (stereo not drawn)
inactive: dose: 100.0 mg/kg/injection, schedule: Q01DX009 (ip), vehicle: other 94 % of control

CC12CCC3c4ccc(Oc5ccccc5[N+](=O)[O-])cc4CCC3C1CCC2=O (stereo not drawn)
inactive: [5] 100 % of control | [6] 103 % of control | [7] 103 % of control

CC(C)CCCC(C)C1CCC2C3CC=C4CC(OC(=O)Nc5ccc(S(=O)(=O)N(C)C)cc5)CCC4(C)C3CCC12C (stereo not drawn)
inactive: [5] 103 % of control | [6] 103 % of control | [7] 103 % of control

CCN(CC)CC(C)(C)/C=N/N=C(N)N
inactive: dose: 15.0 mg/kg/injection, schedule: Q01DX Z (ip), vehicle: saline 98 % of control | dose: 30.0 mg/kg/injection, schedule: Q01DX Z (ip), vehicle: saline 91 % of control | dose: 60.0 mg/kg/injection, schedule: Q01DX Z (ip), vehicle: saline 105 % of control

CCCC(=O)c1ccc2oc3ccccc3c2c1
inactive: [8] 100 % of control | [9] 102 % of control | [10] 94 % of control | [11] 102 % of control | [12] 96 % of control | [13] 98 % of control

CSc1ncc(COC(C)=O)c(N)n1
inactive: [14] 97 % of control | [8] 102 % of control | [15] 99 % of control | [10] 96 % of control | [16] 92 % of control | [12] 104 % of control

Cc1cccc(C)[n+]1CC(=O)CCCCCCC(=O)C[n+]1c(C)cccc1C
inactive: dose: 0.25 mg/kg/injection, schedule: Q04DX003 (ip), vehicle: saline 98 % of control | dose: 0.5 mg/kg/injection, schedule: Q04DX003 (ip), vehicle: saline 105 % of control | dose: 1.0 mg/kg/injection, schedule: Q04DX003 (ip), vehicle: saline 101 % of control

O=c1c2cc([N+](=O)[O-])ccc2[nH]c2c1ccc1ccccc12
inactive: dose: 100.0 mg/kg/injection, schedule: Q04DX003 (ip), vehicle: saline 92 % of control | dose: 200.0 mg/kg/injection, schedule: Q04DX003 (ip), vehicle: saline 92 % of control | dose: 400.0 mg/kg/injection, schedule: Q04DX003 (ip), vehicle: saline 90 % of control

CN1C(=O)CN=C(c2ccc[nH]2)c2cc(Cl)ccc21 (tested in a mixture with another compound)
inactive: [8] 96 % of control | [9] 103 % of control | [10] 91 % of control | [11] 102 % of control | [13] 105 % of control

OCCNc1nn2ccnc2c2ccccc12
inactive: [17] 92 % of control | [18] 92 % of control | [19] 92 % of control

CCCNC(=O)Oc1cccc(NC(=O)OC)c1
inactive: [1] 93 % of control | [2] 97 % of control | [20] 103 % of control

CCCN(CCC)N=Nc1c(C(=O)OC)n[nH]c1C
inactive: dose: 50.0 mg/kg/injection, schedule: Q04DX003 (ip), vehicle: saline with Tween-80 103 % of control | [1] 104 % of control and 109 % of control | dose: 175.0 mg/kg/injection, schedule: Q01DX009 (ip), vehicle: saline 124 % of control | [2] 104 % of control and 109 % of control | dose: 400.0 mg/kg/injection, schedule: Q01DX009 (ip), vehicle: saline 96 % of control | [20] 102 % of control

COc1ccccc1C(=O)CC(O)(C(F)(F)F)C(F)(F)F
inactive: [21] 105 % of control | dose: 200.0 mg/kg/injection, schedule: Q01DX009 (ip), vehicle: saline with Tween-80 103 % of control | dose: 400.0 mg/kg/injection, schedule: Q01DX009 (ip), vehicle: saline with Tween-80 103 % of control

CCCCCCCC(=O)c1ccc(O)cc1
inactive: [1] 109 % of control | [2] 100 % of control | [20] 103 % of control

CC1(C)OC2C(CO)OC(n3nnc4c(SCc5ccccc5)nc(N)nc43)C2O1 (stereo not drawn)
inactive: [14] 98 % of control | [15] 92 % of control | [16] 101 % of control

COc1cc(/C=C/[N+](=O)[O-])c([N+](=O)[O-])cc1OC
inactive: dose: 50.0 mg/kg/injection, schedule: Q01DX009 (ip), vehicle: saline with Tween-80 90 % of control | [3] 106 % of control | [21] 87 % of control | [4] 101 % of control

C1=CC2OC3CCCCC3C2c2ccccc21 (stereo not drawn)
inactive: dose: 100.0 mg/kg/injection, schedule: Q01DX001 (ip), vehicle: carboxymethylcellulose (CMC) 95 % of control | dose: 200.0 mg/kg/injection, schedule: Q01DX001 (ip), vehicle: carboxymethylcellulose (CMC) 95 % of control | dose: 400.0 mg/kg/injection, schedule: Q01DX001 (ip), vehicle: carboxymethylcellulose (CMC) 98 % of control

O=C(CC(O)(C(F)(F)F)C(F)(F)F)c1ccccc1Cl
inactive: [1] 97 % of control | [2] 101 % of control | [20] 101 % of control

CC1(C)N=C(N)N=C(N)N1c1cc(Cl)cc(CCCCc2ccc(S(=O)(=O)F)cc2)c1
inactive: dose: 25.0 mg/kg/injection, schedule: Q04DX003 (ip), vehicle: Klucel (hydroxypropylcellulose) (HPC) 109 % of control | dose: 50.0 mg/kg/injection, schedule: Q04DX003 (ip), vehicle: Klucel (hydroxypropylcellulose) (HPC) 112 % of control | [9] 107 % of control and 118 % of control

O=C(/C=C/c1ccccc1)NN1CCOCC1
inactive: dose: 75.0 mg/kg/injection, schedule: Q01DX009 (ip), vehicle: Klucel (hydroxypropylcellulose) (HPC) 92 % of control | dose: 150.0 mg/kg/injection, schedule: Q01DX009 (ip), vehicle: Klucel (hydroxypropylcellulose) (HPC) 108 % of control | dose: 300.0 mg/kg/injection, schedule: Q01DX009 (ip), vehicle: Klucel (hydroxypropylcellulose) (HPC) 115 % of control

O=C(Nc1ccc(Cl)c(Cl)c1)c1ccc(Cl)cc1
inactive: [17] 103 % of control | [18] 95 % of control | [19] 95 % of control
